In US12595230B2, “Substituted 6,7-dihydro-5H-benzo[7]annulene compounds and their derivatives, processes for their preparation and therapeutic uses thereof” (Sanofi, priority 2020, dated 2026):

Biological target: T1, ERα (Homo sapiens, UniProt P03372)
T1 construct: host or cells: MCF7
T1 sequence (P03372 1-595): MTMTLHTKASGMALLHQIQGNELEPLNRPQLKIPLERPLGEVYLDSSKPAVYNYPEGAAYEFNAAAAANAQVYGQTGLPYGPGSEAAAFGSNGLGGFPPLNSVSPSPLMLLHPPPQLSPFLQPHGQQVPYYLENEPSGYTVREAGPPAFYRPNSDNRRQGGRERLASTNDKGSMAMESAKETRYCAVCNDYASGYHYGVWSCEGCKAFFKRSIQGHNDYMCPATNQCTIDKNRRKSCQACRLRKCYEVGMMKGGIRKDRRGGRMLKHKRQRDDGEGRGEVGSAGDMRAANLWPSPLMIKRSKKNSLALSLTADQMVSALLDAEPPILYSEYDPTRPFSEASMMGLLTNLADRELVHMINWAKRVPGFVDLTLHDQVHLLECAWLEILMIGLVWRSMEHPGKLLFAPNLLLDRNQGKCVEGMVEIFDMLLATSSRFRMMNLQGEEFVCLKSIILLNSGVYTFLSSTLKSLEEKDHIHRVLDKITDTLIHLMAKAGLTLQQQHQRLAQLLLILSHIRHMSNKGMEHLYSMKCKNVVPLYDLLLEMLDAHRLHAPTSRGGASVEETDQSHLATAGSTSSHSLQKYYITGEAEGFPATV
Test: Estrogen receptor degradation activity: breast cancer cell ERα in cell western assay (MCF7 cells)
Format: cell-based
Settings: for % Degradation At 0.3 μM: 4 hours, relative to fulvestrant 0.1 μM positive control; for DC50: 4 hours post compound addition, concentration which degrades 50% of the estrogen receptor, read-out: Degradation IC50
Outline: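 Compounds were applied to MCF7 cells in stripped-serum, phenol red-free medium for 4 h at final 0.3–0.0000018 μM, with fulvestrant (0.1 μM) as control. Value: IC50 (nM) for 50% ERα degradation.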

## COc1ncc(C2=C(c3ccc(CC4CN(CCCF)C4)cc3)c3ccc(C(=O)O)cc3CCC2)cc1C(F)(F)F [Example 306, 9-(4-((1-(3-fluoropropyl)azetidin-3-yl)methyl)phenyl)-8-(6-methoxy-5-(trifluoromethyl)pyridin-3-yl)-6,7-dihydro-5H-benzo[7]annulene-3-carboxylic acid]
  % Degradation At 0.3 μM: 82%
  DC50: 25.8 nM

## CC1CCc2cc(C(=O)O)ccc2C(c2ccc(CC3CN(CCCF)C3)cc2)=C1c1ccc(F)c(F)c1 (racemic) [Example 326, 8-(3,4-difluorophenyl)-9-(4-((1-(3-fluoropropyl)azetidin-3-yl)methyl)phenyl)-7-methyl-6,7-dihydro-5H-benzo[7]annulene-3-carboxylic acid]
  % Degradation At 0.3 μM: 91%
  DC50: 0.7 nM

## C[C@H]1CC[C@H](C2=C(c3ccc(CC4CN(CCCF)C4)cc3)c3ccc(C(=O)O)cc3CCC2)CC1 [Example 15, 9-(4-((1-(3-fluoropropyl)azetidin-3-yl)methyl)phenyl)-8-((1r,4r)-4-methylcyclohexyl)-6,7-dihydro-5H-benzo[7]annulene-3-carboxylic acid]
  % Degradation At 0.3 μM: 86%
  DC50: 4 nM

## O=C(O)c1ccc2c(c1)CCCC(c1cccc(CCO)c1)=C2c1ccc(CC2CN(CCCF)C2)cc1 [Example 319, 9-(4-((1-(3-fluoropropyl)azetidin-3-yl)methyl)phenyl)-8-(3-(2-hydroxyethyl)phenyl)-6,7-dihydro-5H-benzo[7]annulene-3-carboxylic acid]
  % Degradation At 0.3 μM: 73%
  DC50: 48 nM

## COc1nc(C(F)(F)F)ccc1C1=C(c2ccc(CC3CN(CCCF)C3)cc2)c2ccc(C(=O)O)cc2CCC1 [Example 268, 9-(4-((1-(3-fluoropropyl)azetidin-3-yl)methyl)phenyl)-8-(2-methoxy-6-(trifluoromethyl)pyridin-3-yl)-6,7-dihydro-5H-benzo[7]annulene-3-carboxylic acid]
  % Degradation At 0.3 μM: 89%
  DC50: 0.5 nM

## O=C(O)c1ccc2c(c1)CCCC(c1cc(F)c(F)c(F)c1)=C2c1ccc(CC2CN(CCCF)C2)cc1 [Example 267, 9-(4-((1-(3-fluoropropyl)azetidin-3-yl)methyl)phenyl)-8-(3,4,5-trifluorophenyl)-6,7-dihydro-5H-benzo[7]annulene-3-carboxylic acid]
  % Degradation At 0.3 μM: 89%
  DC50: 0.8 nM

## O=C(O)c1ccc2c(c1)CCCC(c1ccccc1F)=C2c1ccc(CC2CN(CCCF)C2)cc1 [Example 35, 8-(2-fluorophenyl)-9-(4-((1-(3-fluoropropyl)azetidin-3-yl)methyl)phenyl)-6,7-dihydro-5H-benzo[7]annulene-3-carboxylic acid]
  % Degradation At 0.3 μM: 91%
  DC50: 0.4 nM

## Cc1c(Cl)cccc1C1=C(c2ccc(CC3CN(CCC(F)F)C3)cc2)c2ccc(C(=O)O)cc2CCC1 [Example 293, 8-(3-chloro-2-methylphenyl)-9-(4-((1-(3,3-difluoropropyl)azetidin-3-yl)methyl)phenyl)-6,7-dihydro-5H-benzo[7]annulene-3-carboxylic acid]
  % Degradation At 0.3 μM: 86%
  DC50: 0.6 nM

## O=C(O)c1ccc2c(c1)CCCC(c1ccc(Cl)cc1C(F)(F)F)=C2c1ccc(CC2CN(CCCF)C2)cc1 [Example 27, 8-(4-chloro-2-(trifluoromethyl)phenyl)-9-(4-((1-(3-fluoropropyl)azetidin-3-yl)methyl)phenyl)-6,7-dihydro-5H-benzo[7]annulene-3-carboxylic acid]
  % Degradation At 0.3 μM: 94%
  DC50: 0.5 nM

## Cl.O=C(O)c1ccc2c(c1)CCCC(c1ccc(C(F)(F)F)cc1)=C2c1ccc(CC2CN(CCCF)C2)cc1 [Example 318, 9-(4-((1-(3-fluoropropyl)azetidin-3-yl)methyl)phenyl)-8-(4-(trifluoromethyl)phenyl)-6,7-dihydro-5H-benzo[7]annulene-3-carboxylic acid hydrochloride]
  % Degradation At 0.3 μM: 94%
  DC50: 0.6 nM

## Cc1cc(OC(F)F)ccc1C1=C(c2ccc(CC3CN(CCCF)C3)cc2)c2ccc(C(=O)O)cc2CCC1 [Example 20, 8-(4-(difluoromethoxy)-2-methylphenyl)-9-(4-((1-(3-fluoropropyl)azetidin-3-yl)methyl)phenyl)-6,7-dihydro-5H-benzo[7]annulene-3-carboxylic acid]
  % Degradation At 0.3 μM: 91%
  DC50: 0.3 nM

## O=C(O)c1ccc2c(c1)CCCC(c1ccc(Cl)cc1Cl)=C2c1ccc(CC2(F)CN(CCCF)C2)cc1 [Example 46, 8-(2,4-dichlorophenyl)-9-(4-((3-fluoro-1-(3-fluoropropyl)azetidin-3-yl)methyl)phenyl)-6,7-dihydro-5H-benzo[7]annulene-3-carboxylic acid]
  % Degradation At 0.3 μM: 88%
  DC50: 0.6 nM

## Cc1cc(Cl)ccc1C1=C(c2ccc(CC3CN(CCCF)C3)cc2)c2ccc(C(=O)O)cc2CCC1 [Example 25, 8-(4-chloro-2-methylphenyl)-9-(4-((1-(3-fluoropropyl)azetidin-3-yl)methyl)phenyl)-6,7-dihydro-5H-benzo[7]annulene-3-carboxylic acid]
  % Degradation At 0.3 μM: 91%
  DC50: 0.3 nM

## O=C(O)c1ccc2c(c1)CCCC(c1ccc(F)cc1C(F)(F)F)=C2c1ccc(CC2CN(CCC(F)F)C2)cc1 [Example 276, 9-(4-((1-(3,3-difluoropropyl)azetidin-3-yl)methyl)phenyl)-8-(4-fluoro-2-(trifluoromethyl)phenyl)-6,7-dihydro-5H-benzo[7]annulene-3-carboxylic acid]
  % Degradation At 0.3 μM: 85%
  DC50: 0.4 nM

## Cl.O=C(O)c1ccc2c(c1)CCCC(c1cc(F)ccc1C(F)(F)F)=C2c1ccc(CC2CN(CCCF)C2)cc1 [Example 332, 8-(5-fluoro-2-(trifluoromethyl)phenyl)-9-(4-((1-(3-fluoropropyl)azetidin-3-yl)methyl)phenyl)-6,7-dihydro-5H-benzo[7]annulene-3-carboxylic acid hydrochloride]
  % Degradation At 0.3 μM: 85%
  DC50: 0.4 nM

## O=C(O)c1ccc2c(c1)CCCC(c1ccc(Cl)cc1C(F)(F)F)=C2c1ccc(CC2CN(CCC(F)F)C2)cc1 [Example 289, 8-(4-chloro-2-(trifluoromethyl)phenyl)-9-(4-((1-(3,3-difluoropropyl)azetidin-3-yl)methyl)phenyl)-6,7-dihydro-5H-benzo[7]annulene-3-carboxylic acid]
  % Degradation At 0.3 μM: 86%
  DC50: 0.3 nM

## Cc1ccc(C2=C(c3ccc(CC4CN(CCCF)C4)cc3)c3ccc(C(=O)O)cc3CCC2)c(Cl)c1.Cl [Example 7, 8-(2-chloro-4-methylphenyl)-9-(4-((1-(3-fluoropropyl)azetidin-3-yl)methyl)phenyl)-6,7-dihydro-5H-benzo[7]annulene-3-carboxylic acid]
  % Degradation At 0.3 μM: 90%
  DC50: 0.5 nM

## Cl.O=C(O)c1ccc2c(c1)CCCC(C1CCCC1)=C2c1ccc(CC2CN(CCCF)C2)cc1 [Example 6, 8-cyclopentyl-9-(4-((1-(3-fluoropropyl)azetidin-3-yl)methyl)phenyl)-6,7-dihydro-5H-benzo[7]annulene-3-carboxylic acid]
  % Degradation At 0.3 μM: 82%
  DC50: 0.8 nM

## O=C(O)c1ccc2c(c1)CCCC(c1ccc(F)cc1CC(F)(F)F)=C2c1ccc(CC2CN(CCCF)C2)cc1 [Example 272, 8-(4-fluoro-2-(2,2,2-trifluoroethyl)phenyl)-9-(4-((1-(3-fluoropropyl)azetidin-3-yl)methyl)phenyl)-6,7-dihydro-5H-benzo[7]annulene-3-carboxylic acid]
  % Degradation At 0.3 μM: 90%
  DC50: 0.6 nM

## Cc1c(Cl)cccc1C1=C(c2ccc(CC3CN(CCC(F)(F)F)C3)cc2)c2ccc(C(=O)O)cc2CCC1 [Example 260, 8-(3-chloro-2-methylphenyl)-9-(4-((1-(3,3,3-trifluoropropyl)azetidin-3-yl)methyl)phenyl)-6,7-dihydro-5H-benzo[7]annulene-3-carboxylic acid]
  % Degradation At 0.3 μM: 86%
  DC50: 0.6 nM

## Cl.O=C(O)c1ccc2c(c1)CCCC(c1ccc(F)c3c1CCC3)=C2c1ccc(CC2CN(CCCF)C2)cc1 [Example 55, 8-(7-fluoro-2,3-dihydro-1H-inden-4-yl)-9-(4-((1-(3-fluoropropyl)azetidin-3-yl)methyl)phenyl)-6,7-dihydro-5H-benzo[7]annulene-3-carboxylic acid hydrochloride]
  % Degradation At 0.3 μM: 93%
  DC50: 0.5 nM

## O=C([O-])c1ccc2c(c1)CCCC(C1=C[C@@H]3CCC[C@@H]3C1)=C2c1ccc(CC2CN(CCCF)C2)cc1.[Na+] (relative stereo) [Example 299, sodium 9-(4-((1-(3-fluoropropyl)azetidin-3-yl)methyl)phenyl)-8-(cis-1,3a,4,5,6,6a-hexahydropentalen-2-yl)-6,7-dihydro-5H-benzo[7]annulene-3-carboxylate]
  % Degradation At 0.3 μM: 90%
  DC50: 0.7 nM
